Molecules are shown by their SMILES.

The nature of this data set: PK-model estimation of oat product dose and dosing interval needed to reach plasma concentration above LLOQ. More on the design: species or system humans. Particulars: for estimated volume of liquid oats resulting in plasma concentration above LLOQ: consumption interval every 4 h; for estimated intake volume of liquid oats needed for plasma concentration above LLOQ: intake every 8 h. As to the method:
A compartmental model with two absorption compartments and a plasma compartment with linear elimination for each molecule separately described better the experimental data from the single dose intake compared to a compartmental model of a single absorption compartment (Figure S3). Parameter estimation was performed using the non-linear mixed-effects approach with lognormal inter-individual variability in all three model parameters: distribution volume over bioavailability ( [drawing 1] ), absorption rate ( [drawing 2] ), elimination rate ( [drawing 3] ), (R package nlmixr2 [34]). The results were reported as population means with coefficient of variation (Table S1). The area under the curve (AUC) and Cmax were normalized (AUCnorm) for the nmol intake of each molecule. Statistical analysis was conducted with R software environment. The compounds were compared for their PK parameters within the same product and between products using repeated ANOVA approach (lme4 package) and then by pairwise comparison adjusted for post hoc Tukey-Kramer honestly significant difference. All statistical analyses were performed on log- transformed data. Based on the PK models built on the single-dose data, a linear relationship ( [drawing 4] was derived between dose and dosing interval (intake frequency, [drawing 5] ) to estimate the AVA intake needed to reach an average concentration (at steady state) that is measurable above lower limit of quantification (LLOQ). To translate the intake of AVAs from the linear relationship (Dose) to corresponding oat flake product intake, we estimated the content of AVAs in different products using reported data from the literature and assigned values, where possible. For the flakes, information in literature was available for AVA 2c, AVA 2p and AVA 2 f. Therefore, an average value for these compounds per food product was assigned while for the oat drink and for the less known AVAs; AVA 2pd and AVA 2fd, an average value based on the measured products in our laboratory was used (Table S2). In the second phase of the intervention, following a repeated dosing period of 4 days, plasma concentrations were determined over a dosing interval recorded by the individuals and were compared to their corresponding predicted values in blood. This comparison allowed for an assessment of the model’s accuracy in predicting AVAs’ behavior under repeated dosing conditions. Only experimental data above the limit of quantification were used for the comparison. Further, the data were tested for outliers with the interquartile range (IQR) approach and five observations were considered outliers and were removed.

For the compound `O=C(/C=C/c1ccc(O)c(O)c1)Nc1ccc(O)cc1C(=O)O` [AVA 2c], the “estimated volume of liquid oats resulting in plasma concentration above LLOQ” value was “about 30 mL” and the “estimated intake volume of liquid oats needed for plasma concentration above LLOQ” value is listed as 65 mL.

As to `COc1cc(/C=C/C(=O)Nc2ccc(O)cc2C(=O)O)ccc1O` [AVA 2f], the “average amount of oat flakes needed to reach measurable plasma levels (above LLOQ)” value (oat flakes consumed every 4 h) was 235 g. Further, the “amount of oat flakes needed to reach measurable plasma levels (above LLOQ)” value (oat flakes consumed every 8 h) is recorded as 470 g.

Regarding `O=C(/C=C/c1ccc(O)cc1)Nc1ccc(O)cc1C(=O)O` [AVA 2p], the “estimated volume of liquid oats resulting in plasma concentration above LLOQ” value is listed as “about 30 mL” and the “estimated intake volume of liquid oats needed for plasma concentration above LLOQ” value is 65 mL.

(Values after article PMC12418703, “Avenanthramides and avenacosides as biomarkers of oat intake: a pharmacokinetic study of solid and liquid oat consumption under single and repeated dose conditions” (Nutrition Journal, 2025).)
